From patent US10864198B2, “Methods of preventing cardiovascular events in residual risk dyslipidemic populations” (Kowa Company, Ltd., priority 2016, dated 2020)
Where two headings read alike, the source gives them in different places.

How the values were obtained:
PPARδ = biological target: T1, PPARδ (Homo sapiens, UniProt Q03181); conditions: PPAR transcriptional activity; Fruchart 2013 Table 1; cited from earlier work
T1 sequence (Q03181 1-441): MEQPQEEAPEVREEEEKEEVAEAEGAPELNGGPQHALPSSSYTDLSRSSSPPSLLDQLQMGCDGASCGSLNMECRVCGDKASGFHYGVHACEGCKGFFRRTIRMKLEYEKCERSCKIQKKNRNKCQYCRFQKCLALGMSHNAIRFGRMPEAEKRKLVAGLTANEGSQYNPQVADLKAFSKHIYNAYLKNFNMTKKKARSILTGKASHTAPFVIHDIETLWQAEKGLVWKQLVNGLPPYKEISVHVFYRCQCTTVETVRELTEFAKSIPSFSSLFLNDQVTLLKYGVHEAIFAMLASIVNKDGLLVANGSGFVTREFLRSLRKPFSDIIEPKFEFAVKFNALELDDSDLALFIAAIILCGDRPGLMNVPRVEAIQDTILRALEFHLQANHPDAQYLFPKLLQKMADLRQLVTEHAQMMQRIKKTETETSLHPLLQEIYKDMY

[1] = system: patients on statins with residual cardiovascular risk; conditions: two clinical trials; cited from earlier work
men with dyslipidemia = conditions: Helsinki Heart Study and VA-HIT Study; cited from earlier work
[2] = system: dyslipidemia patients on concurrent statin therapy; format: in vivo, human; conditions: for LDL-C levels increase vs. placebo: significant
Text: The results of the study are depicted in FIGS. 1A-1D.

[3] = system: patients with type 2 diabetes mellitus with residual dyslipidemia on statin; assay: Example 2: post-hoc analysis of type 2 diabetes patients of the Example 1 study; format: in vivo, human; conditions: for increase in HDL-C / BQ LDL-C increase: significant
Text: Overall, 161 type 2 diabetes mellitus patients were randomized and 154 patients completed treatment. […] Tables 1-4 also report the results of the analyses, and compare the results to the results obtained for the general residual dyslipidemia population studied in Example 1.

[4] = system: patients with fasting high TG and non-HDL-C treated with pitavastatin; assay: Example 3: double-blind parallel-group study, pemafibrate add-on to pitavastatin, 12 weeks; format: in vivo, human; conditions: for Fasting non-HDL-C reduction: with pitavastatin, placebo −5.9%; for Fasting TG reduction (percentage change from baseline): with pitavastatin 2 mg/day, P<0.001 vs placebo (−6.9%)
Text: The primary endpoint was the percentage change in TG from baseline and incidence of adverse drug reactions (ADRs) and adverse events (AEs).

PPARγ = biological target: T2, PPARγ (Homo sapiens, UniProt P37231); conditions: PPAR transcriptional activity; Fruchart 2013 Table 1; cited from earlier work
T2 sequence (P37231 1-505): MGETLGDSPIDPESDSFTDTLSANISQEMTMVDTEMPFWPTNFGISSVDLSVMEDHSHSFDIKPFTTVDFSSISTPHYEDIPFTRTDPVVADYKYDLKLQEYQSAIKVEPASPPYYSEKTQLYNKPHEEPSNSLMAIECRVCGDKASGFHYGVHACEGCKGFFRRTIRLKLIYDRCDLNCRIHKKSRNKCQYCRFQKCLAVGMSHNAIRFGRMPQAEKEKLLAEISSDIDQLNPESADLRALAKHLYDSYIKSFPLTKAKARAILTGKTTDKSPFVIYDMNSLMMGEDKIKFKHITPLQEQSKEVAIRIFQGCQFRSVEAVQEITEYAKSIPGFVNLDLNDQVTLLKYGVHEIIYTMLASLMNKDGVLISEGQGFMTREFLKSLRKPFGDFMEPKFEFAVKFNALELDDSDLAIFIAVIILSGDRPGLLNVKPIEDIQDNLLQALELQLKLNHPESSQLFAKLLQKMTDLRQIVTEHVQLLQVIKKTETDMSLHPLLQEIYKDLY

CC(C)OC(=O)C(C)(C)Oc1ccc(C(=O)c2ccc(Cl)cc2)cc1 [Fenofibrate, reference compound]
PPARδ EC50 (PPARδ): not activated

O=C(O)c1cccnc1 [niacin]
prevention of cardiovascular events [1]: unable to prevent cardiovascular events

Cc1ccc(C)c(OCCCC(C)(C)C(=O)O)c1 [gemfibrozil]
primary endpoint for reducing cardiovascular risk (men with dyslipidemia): met their primary endpoint

CC[C@@H](Oc1cccc(CN(CCCOc2ccc(OC)cc2)c2nc3ccccc3o2)c1)C(=O)O [pemafibrate, Pemafibrate]
LDL-C levels increase vs. placebo ([2]; 0.1 mg BID, 12 weeks): 22.46% | Non-HDL-C levels ([2]; 0.2 mg BID, 12 weeks): significantly reduced | LDL-C levels increase vs. placebo ([2]; 0.2 mg BID, 12 weeks): 24.25% | Non-HDL-C levels ([2]; 0.2 mg QD, 12 weeks): significantly reduced | LDL-C levels increase vs. placebo ([2]; 0.4 mg QD, 12 weeks): 18.74% | TG levels ([2]; all treatment groups after 12 weeks): significantly reduced | change in total Apo B ([2]; any dose, 12 weeks): no significant change | Adverse events, patients ([2]; both, human, in vivo, 12 weeks): 46.4% | increase in HDL-C ([3]; 0.05 mg BID): 11.39% | increase in HDL-C ([3]; 0.1 mg BID): 11.94% | BQ LDL-C increase ([3]; 0.1 mg QD): 6.7% | BQ LDL-C increase ([3]; 0.2 mg BID): 1.8% | increase in HDL-C ([3]; 0.2 mg QD): 9.48% | TG levels ([3]; across all doses): significantly reduced | Apo B48 levels ([3]; all doses): significantly reduced | Apo CIII levels ([3]; all doses): significantly reduced | remnant-C levels ([3]; all doses): significantly reduced | change in total Apo B ([3]; any dose): no significant change | fasting plasma glucose compared to placebo ([4]; 0.4 mg/day, P=0.003): significant reductions | HOMA-IR compared to placebo ([4]; 0.4 mg/day, P=0.019): significant reductions | very small LDL-C compared to placebo ([4]; HPLC analysis, P<0.05): significant reduction | effect on total LDL-C ([4]; add-on to pitavastatin, 12 weeks): neutral effect | Apo CIII compared to placebo ([4]; all pemafibrate groups, P<0.01): reductions | HDL-C compared to placebo ([4]; all pemafibrate groups, P<0.01): Significant increase | VLDL-C compared to placebo ([4]; all pemafibrate groups, P<0.01): reductions | remnant lipoprotein cholesterol compared to placebo ([4]; all pemafibrate groups, P<0.01): reductions | Fasting non-HDL-C reduction ([4]; pemafibrate 0.1 mg, 12 weeks): −11.3% | Fasting TG reduction (percentage change from baseline) ([4]; pemafibrate 0.1 mg/day twice-daily, 12 weeks): −46.1% | Fasting non-HDL-C reduction ([4]; pemafibrate 0.2 mg, 12 weeks): −14.1% | Fasting TG reduction (percentage change from baseline) ([4]; pemafibrate 0.2 mg/day twice-daily, 12 weeks): −53.4% | Fasting non-HDL-C reduction ([4]; pemafibrate 0.4 mg, 12 weeks): −13.3% | Fasting TG reduction (percentage change from baseline) ([4]; pemafibrate 0.4 mg/day twice-daily, 12 weeks): −52.0% | EC50 (PPARγ): 2.3 µM | EC50 (PPARδ): 1 µM
